From PubChem BioAssay (NCI)
Several values for one entry are separate records, joined by “and”; a condition that tells them apart may be missing. Identical values can stand only once.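 Step 1: Grow cells in 96-well plates. Step 2: Expose to compound for 48 hours at 5 concentrations. Step 3: Interpolate endpoints linearly; if unreached, use highest concentration. GI50 is the concentration that inhibits growth by half. TGI is the concentration that stops growth completely.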

Assays:
Assay in all cases: DTP human tumour cell line panel, 48 h
DLD-1 colon = test system: DLD-1 colon
786-0 renal = test system: 786-0 renal
HOP-18 NSCLC = test system: HOP-18 NSCLC
KM20L2 colon = test system: KM20L2 colon
XF 498 CNS = test system: XF 498 CNS
LXFL 529 NSCLC = test system: LXFL 529 NSCLC
M19-MEL melanoma = test system: M19-MEL melanoma
NCI/ADR-RES ovarian = test system: NCI/ADR-RES ovarian
HS 578T breast = test system: HS 578T breast
DU-145 prostate = test system: DU-145 prostate

## COC[C@H](C)N=CN1CCc2ccccc2C1(Cc1ccccc1)Cc1ccccc1
DLD-1 colon
  TGI: 29.8 µM
786-0 renal
  TGI: 30.3 µM
HOP-18 NSCLC
  TGI: 24 µM
KM20L2 colon
  TGI: 24.7 µM
XF 498 CNS
  TGI: 24.8 µM
LXFL 529 NSCLC
  TGI: 25.3 µM

## COc1ccc(CCc2cc(OC)c(O)c(OC)c2)cc1
DLD-1 colon
  TGI: > 100 µM
786-0 renal
  TGI: > 100 µM
KM20L2 colon
  TGI: > 100 µM
M19-MEL melanoma
  TGI: > 100 µM
XF 498 CNS
  TGI: > 100 µM
LXFL 529 NSCLC
  TGI: > 100 µM

## C1C[OH+]CC[OH+]CCNCC[OH+]CC[OH+]CCN1.Cl.[Cl-].[Pt+4]
DLD-1 colon
  GI50: > 100 µM
  TGI: > 100 µM
786-0 renal
  GI50: > 100 µM
  TGI: > 100 µM
HOP-18 NSCLC
  GI50: > 100 µM
  TGI: > 100 µM
KM20L2 colon
  GI50: > 100 µM
  TGI: > 100 µM
LXFL 529 NSCLC
  GI50: > 100 µM
  TGI: > 100 µM

## C[Si](C)(C)C(Sc1ccccc1)(Sc1ccccc1)Sc1ccccc1
DLD-1 colon
  TGI: > 100 µM
786-0 renal
  TGI: > 100 µM
KM20L2 colon
  TGI: > 100 µM
M19-MEL melanoma
  TGI: > 100 µM
XF 498 CNS
  TGI: > 100 µM
LXFL 529 NSCLC
  TGI: > 100 µM

## Cc1ccccc1C1CC(c2ccccc2)=NO1 (stereo not drawn)
DLD-1 colon
  TGI: > 100 µM
786-0 renal
  TGI: > 100 µM
HOP-18 NSCLC
  TGI: > 100 µM
KM20L2 colon
  TGI: > 100 µM
LXFL 529 NSCLC
  TGI: > 100 µM

## CCc1cccc(C)c1NC(=S)NC(=O)c1ccccc1C(=O)NC(=S)Nc1c(C)cccc1CC
DLD-1 colon
  TGI: > 100 µM
786-0 renal
  TGI: > 100 µM
HOP-18 NSCLC
  TGI: > 100 µM
KM20L2 colon
  TGI: > 100 µM
M19-MEL melanoma
  TGI: > 100 µM
LXFL 529 NSCLC
  TGI: > 100 µM

## [O-]c1c2c(nn1-c1ccc(Cl)cc1)c1ccccc1c[n+]2Cc1ccccc1
DLD-1 colon
  TGI: > 100 µM
786-0 renal
  TGI: > 100 µM
HOP-18 NSCLC
  TGI: > 100 µM
KM20L2 colon
  TGI: > 100 µM
XF 498 CNS
  TGI: > 100 µM
LXFL 529 NSCLC
  TGI: > 100 µM

## C/C(=N\NC(=O)CC(=O)N(C(=O)c1ccc(Cl)cc1)c1ccc(C)cc1)c1ccccc1O
DLD-1 colon
  TGI: > 100 µM
786-0 renal
  TGI: > 100 µM
KM20L2 colon
  TGI: > 100 µM
M19-MEL melanoma
  TGI: > 100 µM
XF 498 CNS
  TGI: > 100 µM
LXFL 529 NSCLC
  TGI: > 100 µM

## CCOC(=O)CNc1nnnn1C1OC(CO)C(O)C1O (stereo not drawn)
DLD-1 colon
  TGI: > 100 µM
786-0 renal
  TGI: > 100 µM
KM20L2 colon
  TGI: > 100 µM
M19-MEL melanoma
  TGI: > 100 µM
XF 498 CNS
  TGI: > 100 µM
LXFL 529 NSCLC
  TGI: > 100 µM

## Cn1cnc([N+](=O)[O-])c1Sc1nccc(=O)[nH]1
DLD-1 colon
  TGI: > 100 µM
786-0 renal
  TGI: > 100 µM
HOP-18 NSCLC
  TGI: > 100 µM
M19-MEL melanoma
  TGI: > 100 µM
XF 498 CNS
  TGI: > 100 µM
LXFL 529 NSCLC
  TGI: > 100 µM

## Cc1ccc2nc(NC(=O)/C(=N\NC(=S)NN)C3C(=O)NC(=S)NC3=O)sc2c1
DLD-1 colon
  TGI: > 100 µM
786-0 renal
  TGI: > 100 µM
HOP-18 NSCLC
  TGI: > 100 µM
KM20L2 colon
  TGI: > 100 µM
XF 498 CNS
  TGI: > 100 µM
LXFL 529 NSCLC
  TGI: > 100 µM

## CCN(CC)CCNc1ccc2nc(C)n3c4ccc(O)cc4c(=O)c1c23
DLD-1 colon
  TGI: 10.5 µM
786-0 renal
  TGI: 10.4 µM
M19-MEL melanoma
  TGI: 16.8 µM
LXFL 529 NSCLC
  TGI: 16.5 µM

## Cc1ccc(NC(=O)OCC(COc2ccc(Cl)cc2Cl)OC(=O)Nc2ccc(C)cc2)cc1 (stereo not drawn)
DLD-1 colon
  TGI: > 100 µM
786-0 renal
  TGI: > 100 µM
HOP-18 NSCLC
  TGI: > 100 µM
KM20L2 colon
  TGI: > 100 µM
M19-MEL melanoma
  TGI: > 100 µM
LXFL 529 NSCLC
  TGI: > 100 µM

## C[CH2][Sn]([CH2]C)([O]C(=O)c1ccc(OC)c(OC)c1OC)[O]C(=O)c1ccc(OC)c(OC)c1OC
NCI/ADR-RES ovarian
  GI50: > 100 µM
  TGI: > 100 µM
786-0 renal
  GI50: 58.6 µM
  TGI: > 100 µM
HS 578T breast
  GI50: 23.2 µM
  TGI: 88.8 µM
HOP-18 NSCLC
  GI50: 18.7 µM
  TGI: 32.7 µM
KM20L2 colon
  GI50: > 100 µM
  TGI: > 100 µM
M19-MEL melanoma
  GI50: 53.2 µM
  TGI: > 100 µM
XF 498 CNS
  GI50: 34.6 µM
  TGI: > 71.5 µM
LXFL 529 NSCLC
  GI50: 12.6 µM
  TGI: 25.3 µM
DU-145 prostate
  GI50: > 100 µM
  TGI: > 100 µM

## C=C(CCCO)[C@@H]1CC[C@@](C)(O)[C@H]1C
786-0 renal
  TGI: > 100 µM
HOP-18 NSCLC
  TGI: > 100 µM
KM20L2 colon
  TGI: > 100 µM
M19-MEL melanoma
  TGI: > 100 µM
XF 498 CNS
  TGI: > 100 µM
LXFL 529 NSCLC
  TGI: > 100 µM

## COCc1c(-c2ccc(NC(=O)Nc3cc(C(F)(F)F)ccc3F)c(F)c2)c2c(N)ncnn2c1CN1CCOCC1
NCI/ADR-RES ovarian
  GI50: 3.12 µM
  TGI: > 10 µM
786-0 renal
  GI50: 2.76 µM
  TGI: > 10 µM
HS 578T breast
  GI50: 0.138 µM
  TGI: 0.733 µM
DU-145 prostate
  GI50: 2.09 µM
  TGI: > 10 µM

## CCCCCC[C@H](C)NC(=O)c1ccc(Nc2nc3ccccc3c3occc23)cc1
NCI/ADR-RES ovarian
  GI50: 2.48 µM
  TGI: 6.99 µM
786-0 renal
  GI50: 2.35 µM
  TGI: 7.71 µM
HS 578T breast
  GI50: 4.68 µM
  TGI: 67.6 µM
DU-145 prostate
  GI50: 3.07 µM
  TGI: 8.87 µM

## N#CC1C(=O)NC(c2ccccc2[N+](=O)[O-])c2sc3c(F)cccc3c21 (stereo not drawn)
NCI/ADR-RES ovarian
  GI50: 8.06 µM
  TGI: 39.8 µM
786-0 renal
  GI50: 33 µM
  TGI: > 100 µM
HS 578T breast
  GI50: 15.2 µM
  TGI: 69.9 µM
DU-145 prostate
  GI50: 8.16 µM
  TGI: 46.1 µM

## CCN(Cc1ccc(F)cc1)c1ccc(CO)c(OC)c1
NCI/ADR-RES ovarian
  GI50: 17.6 µM
  TGI: 55.5 µM
786-0 renal
  GI50: 21.4 µM
  TGI: 65.1 µM
HS 578T breast
  GI50: 14.9 µM
  TGI: > 100 µM
DU-145 prostate
  GI50: 27.6 µM
  TGI: > 95.2 µM

## Cc1ccc(OCC2OC(n3cnc4c(Br)nc(Br)nc43)CC2Oc2ccc(C)cc2)cc1 (stereo not drawn)
NCI/ADR-RES ovarian
  GI50: 20.4 µM
  TGI: 53.5 µM and 29.5 µM
786-0 renal
  GI50: 1.57 µM
  TGI: 3.48 µM and 9.92 µM
HS 578T breast
  GI50: 14.4 µM and 2.96 µM
  TGI: 36 µM and 7.18 µM
DU-145 prostate
  GI50: 13.1 µM
  TGI: 23.8 µM and 5.88 µM

## CCN(CC)CCn1c2ccccc2c(=O)c2c(OC)ccc(OC)c21
786-0 renal
  TGI: > 100 µM
KM20L2 colon
  TGI: > 100 µM
M19-MEL melanoma
  TGI: > 100 µM
XF 498 CNS
  TGI: > 100 µM
LXFL 529 NSCLC
  TGI: > 100 µM

## CC1C2CC=CC(=O)[C@@]2(C)CCC12OCCO2 (stereo partly drawn)
DLD-1 colon
  TGI: > 100 µM
786-0 renal
  TGI: > 100 µM
KM20L2 colon
  TGI: > 100 µM
M19-MEL melanoma
  TGI: > 100 µM
LXFL 529 NSCLC
  TGI: > 100 µM
